Experimental data: patent US11246844B2, “Methods for inhibiting conversion of choline to trimethylamine (TMA)” (The Procter & Gamble Company, priority 2016, dated 2022)
Structures can show the parent of a compound that is named as a salt. Where two headings read alike, the source gives them in different places.

Columns and labels:
[1] = tested on: plasma TMAO; test: Preclinical screening method: plasma TMAO in mice on 1% Choline Added diet (Example 3); type: in vivo, mice (C57bl/6); settings: Mus musculus, read-out: Remaining plasma TMAO as percentage of plasma TMAO in same day vehicle control (% of control remaining)
Method: Starting at day 0, mice (C57bl/6, ˜19 g, 10 wk of age; n=5/group) were maintained in accordance with the NIH guidelines in a 12:12 hr light:dark cycle and provided with 1% Choline Added diet (Envigo custom formulation prepared, similar to Teklad Global Rodent Diet 2018) ad libitum. Concurrent with introduction of the diet mice were gavaged once daily orally using a 1.5″ 22G ball-tip curved feeding needle to administer compound in 200 μl or less of water at one or multiple of the dose 0, 1.0, 3.1, 10, 31, 100 or 310 mg/kg/day. Urine was collected once daily in the morning. Animals were restrained by hand and bladder was expressed by gentle palpation of the pelvic region. Aliquots of 1-5 μl of urine were centrifuged at 1,300×g for 5 min in a 1.5 mL conical bottom tube with a snap top, to precipitate any potential cellular debris, and supernatants were transferred to a clean screw-cap tube with o-ring seal and stored at −80° C. until analysis. Sixty microliters or less of blood was collected at 20 hours post gavage, into a heparinized capillary tube. Blood was kept at 4° C., then spun using a centrifuge (5 min in centrifuge designed to capillary tubes) to separate plasma and hematocrit within 4 hours after collection. Plasma samples were stored at −80° C.
For measurement of TMA in plasma, samples were acidified (10 mM HCl final) prior to storage at −80° C. TMAO and trimethylamine (TMA) and their d9-isotopologues were quantified using stable isotope dilution HPLC with on-line electrospray ionization tandem mass spectrometry ([…]) methods as described in (Wang Z, Klipfell E, Bennett B J, et al. (2011) Gut flora metabolism of phosphatidylcholine promotes cardiovascular disease. Nature 472:57-63) using d4(1,1,2,2)-choline, d3(methyl)-TMAO, and d3(methyl)-TMA as internal standards. Concentrations of TMAO in urine were adjusted for urinary dilution by analysis of urine creatinine concentration. Samples were taken at different days during the studies and different doses were administered to avoid side effects at higher doses of some of the compounds.

[2] = tested on: Pseudomonas aeruginosa; settings: growth on glycine betaine and dimethyl glycine; cited from earlier work
[3] = tested on: Proteus mirabilis 29906 (Pm) lysate; test: Inhibition of conversion of choline to TMA in Proteus mirabilis lysate (Example 2); type: biochemical; settings: read-out: TMA Inhibition (IC50, mol/L)
[4] = 24 h, mice, oral gavage once daily, 310 mg/kg/day, day 1, blood 20 hours post gavage
[5] = 72 h, mice, oral gavage once daily, 310 mg/kg/day, day 3, blood 20 hours post gavage
[6] = Pm lysate 1.5 mg/mL protein, 50 μM d9-choline chloride, 37° C., two hours, d9-TMA by LC-MS/MS

C#CC[N+](C)(C)CC(=O)O
response vs control in vivo at 100 mg/kg/day ([1]; 72 h, mice, oral gavage once daily, 100 mg/kg/day, day 3, blood 20 hours post gavage): 6.06%

C#CC[N+](C)(C)CC(=C)C(=O)OC [2-(methoxycarbonyl)-N,N-dimethyl-N-(prop-2-yn-1-yl)prop-2-en-1-aminium bromide]
response vs control in vivo at 310 mg/kg/day [1, 4]: 69%

C#CC[N+](C)(C)CC(=C)C#N [2-cyano-N,N-dimethyl-N-(prop-2-yn-1-yl)prop-2-en-1-aminium bromide]
response vs control in vivo at 310 mg/kg/day [1, 4]: 46.2%

C#CC[N+](C)(C)CCCCC(=O)O [4-carboxy-N,N-dimethyl-N-(prop-2-yn-1-yl)butan-1-aminium bromide]
response vs control in vivo at 310 mg/kg/day [1, 4]: 64.4%

C#CC[N+](C)(C)CCO [ID 21, N-(2-hydroxyethyl)-N,N-dimethyl-2-propyn-1-aminium bromide]
response vs control in vivo at 310 mg/kg/day [1, 5]: 0.94%
Growth of P. aeruginosa on GB and DMG [2]: inhibited

C#CC[N+](C)(C)C [ID 33, trimethyl(prop-2-ynyl)ammonium iodide]
response vs control in vivo at 310 mg/kg/day ([1]; po, 72 h): 0.41%

C#CC[N+](C)(C)CCl [ID 40, chloromethyl-dimethyl-prop-2-ynyl-ammonium iodide]
response vs control in vivo at 310 mg/kg/day ([1]; po, 24 h): 0.43%

C#CC[N+](C)(C)CBr [ID 41, bromomethyl-dimethyl-prop-2-ynyl-ammonium bromide]
response vs control in vivo at 310 mg/kg/day [1, 5]: 0.23%

C#CC[N+](C)(C)CI [ID 42, iodomethyl-dimethyl-prop-2-ynyl-ammonium iodide]
response vs control in vivo at 310 mg/kg/day [1, 5]: 0.1%

C#CC[N+](C)(C)CC(=C)C(=O)OC [compound 1, 2-(methoxycarbonyl)-N,N-dimethyl-N-(prop-2-yn-1-yl)prop-2-en-1-aminium]
IC50 [3, 6]: 13.2 nM

C#CC[N+](C)(C)CCCCC(=O)O [compound 2, 4-carboxy-N,N-dimethyl-N-(prop-2-yn-1-yl)butan-1-aminium]
IC50 [3, 6]: 110 nM

COC(C[N+](C)(C)CCO)OC [compound 3, N-(2-hydroxyethyl)-2,2-dimethoxy-N,N-dimethylethan-1-aminium]
IC50 [3, 6]: 2400 nM

C#CC[N+](C)(C)CC(OC)OC [compound 4, N-(2,2-dimethoxyethyl)-N,N-dimethylprop-2-yn-1-aminium]
IC50 [3, 6]: 525 nM

C#CC[N+](C)(C)CC(O)O [compound 5, N-(2,2-dihydroxyethyl)-N,N-dimethylprop-2-yn-1-aminium]
IC50 [3, 6]: 5310 nM

C#CC[N+](C)(C)CC(OCC)OCC [compound 6, N-(2,2-diethoxyethyl)-N,N-dimethylprop-2-yn-1-aminium]
IC50 [3, 6]: 88200 nM

C#CC[N+](C)(C)CCCCCC(=O)O [compound 7, 5-carboxy-N,N-dimethyl-N-(prop-2-yn-1-yl)pentan-1-aminium]
IC50 [3, 6]: 216 nM

C#CC[N+](C)(C)CC(=C)C(=O)O [compound 8, 2-carboxy-N,N-dimethyl-N-(prop-2-yn-1-yl)prop-2-en-1-aminium bromide]
IC50 [3, 6]: 76.4 nM

C#CC[N+](C)(C)CC(N)=O [compound 9, N-(2-amino-2-oxoethyl)-N,N-dimethylprop-2-yn-1-aminium]
IC50 [3, 6]: 130 nM

C=C(C[N+](C)(C)CCO)C(=O)O [compound 10, 2-carboxy-N-(2-hydroxyethyl)-N,N-dimethylprop-2-en-1-aminium]
IC50 [3, 6]: 15500 nM

C=C(C#N)C[N+](C)(C)CCO [compound 11, 2-cyano-N-(2-hydroxyethyl)-N,N-dimethylprop-2-en-1-aminium]
IC50 [3, 6]: 63.1 nM

C#CC[N+](C)(C)CC(=C)C#N [compound 12, 2-cyano-N,N-dimethyl-N-(prop-2-yn-1-yl)prop-2-en-1-aminium]
IC50 [3, 6]: 4.74 nM

C#CC[N+](C)(C)CC(=O)C(=O)OC [compound 13, N-(3-methoxy-2,3-dioxopropyl)-N,N-dimethylprop-2-yn-1-aminium]
IC50 [3, 6]: 63.1 nM

C=C(C#N)C[N+]1(C)C2CCCC1CC2 (centres unmarked) [compound 14, 8-(2-cyanoallyl)-8-methyl-8-azabicyclo[3.2.1]octan-8-ium]
IC50 [3, 6]: 44600 nM

C#CC[N+](C)(C)CCN [compound 15, 2-aminoethyl-dimethyl-prop-2-ynyl-ammonium, hydrochloride]
IC50 [3, 6]: 3010 nM

C#CCC[N+](C)(C)CCO [compound 16, N-(2-hydroxyethyl)-N,N-dimethylbut-3-yn-1-aminium]
IC50 [3, 6]: 15700 nM

C#CC[N+]1(C)CCC(O)CC1 (centres unmarked) [compound 17, 4-hydroxy-1-methyl-1-(prop-2-yn-1-yl)piperidin-1-ium]
IC50 [3, 6]: 124000 nM

C#CC[N+]1(C)C2CCCC1CC2 (centres unmarked) [compound 18, 8-methyl-8-(prop-2-yn-1-yl)-8-azabicyclo[3.2.1]octan-8-ium]
IC50 [3, 6]: 1610 nM

C#CC[N+](C)(C)CC(=O)O [compound 19, N-(carboxymethyl)-N,N-dimethylprop-2-yn-1-aminium]
IC50 [3, 6]: 21.6 nM

C#CC[N+](C)(C)CC(=O)OC [compound 20, N-(2-methoxy-2-oxoethyl)-N,N-dimethylprop-2-yn-1-aminium]
IC50 [3, 6]: 44.1 nM

C#CC[N+](C)(C)CCO [compound 21, N-(2-hydroxyethyl)-N,N-dimethyl-2-propyn-1-aminium]
IC50 [3, 6]: 30.4 nM

CC#CC[N+](C)(C)CCO [compound 22, N-(2-hydroxyethyl)-N,N-dimethyl-2-butyn-1-aminium]
IC50 [3, 6]: 152 nM

C=CC[N+](C)(C)CC=C [compound 23, N,N-dimethyl-N-2-propenyl-2-propen-1-aminium]
IC50 [3, 6]: 3030 nM

C[N+](C)(CCO)CC1CO1 (centres unmarked) [compound 24, 2-hydroxy-N,N-dimethyl-N-(oxiran-2-ylmethyl)ethan-1-aminium]
IC50 [3, 6]: 1940 nM

C=CC[N+](C)(C)CCO [compound 25]
IC50 [3, 6]: 6710 nM

C#CC[N+](CC#C)(CC#C)CCO [compound 26, N-(2-hydroxyethyl)-N,N-di(prop-2-yn-1-yl)prop-2-yn-1-aminium]
IC50 [3, 6]: 31700 nM

C=CC(=O)OCC[N+](C)(C)C [compound 27, 2-(acryloyloxy)-N,N,N-trimethylethan-1-aminium]
IC50 [3]: 68700 nM

C#CC[N+](C)(C)CCCO [compound 28, N-(3-hydroxypropyl)-N,N-dimethylprop-2-yn-1-aminium]
IC50 [3, 6]: 117000 nM

C[N+](C)(CC#N)CCO [compound 29, N-(cyanomethyl)-2-hydroxy-N,N-dimethylethan-1-aminium]
IC50 [3, 6]: 335000 nM

C=CC[N+](CC=C)(CC=C)CC=C [compound 30, N,N,N-tri(prop-2-en-1-yl)prop-2-en-1-aminium]
IC50 [3, 6]: 694000 nM

C#CC[N+](C)(C)CC(=O)O [compound 31]
IC50 [3, 6]: 1810 nM

C/C=C/C[N+](C)(C)CCO [compound 32, [(E)-but-2-enyl]-(2-hydroxyethyl)-dimethyl-ammonium]
IC50 [3, 6]: 899 nM

C#CC[N+](C)(C)C [compound 33]
IC50 [3, 6]: 0.115 nM

C#CC[N+](C)(C)CC#C [compound 34, dimethyl-bis(prop-2-ynyl)ammonium]
IC50 [3, 6]: 2.65 nM

C=CC[N+](C)(C)CC#N [compound 35, allyl-(cyanomethyl)-dimethyl-ammonium]
IC50 [3, 6]: 64.4 nM

C#CC[N+](C)(C)CC#N [compound 36, cyanomethyl-dimethyl-prop-2-ynyl-ammonium]
IC50 [3, 6]: 279 nM

C=CC[N+](C)(C)C [compound 37]
IC50 [3, 6]: 50000 nM

C#CC[N+](C)(CC#C)CC#C [compound 38, methyl-tris(prop-2-ynyl)ammonium]
IC50 [3, 6]: 81000 nM

C#CC[N+](CC#C)(CC#C)CC#C [compound 39, tetrakis(prop-2-ynyl)ammonium]
IC50 [3, 6]: 87900 nM

C#CC[N+](C)(C)CCl [compound 40, chloromethyl-dimethyl-prop-2-ynyl-ammonium]
IC50 [3, 6]: 0.0164 nM

C#CC[N+](C)(C)CBr [compound 41, bromomethyl-dimethyl-prop-2-ynyl-ammonium]
IC50 [3, 6]: 0.235 nM

C#CC[N+](C)(C)CI [compound 42, iodomethyl-dimethyl-prop-2-ynyl-ammonium]
IC50 [3, 6]: 0.463 nM

C#CC[N+](C)(C)CCBr [compound 43, 2-bromoethyl-dimethyl-prop-2-ynyl-ammonium]
IC50 [3, 6]: 140 nM
